Laboratory results as given in patent US8772307B2, “Substituted spiro compounds and their use for producing pain-relief medicaments” (Gruenenthal GmbH, priority 2005, dated 2014).

Key:
[1] = target: T1, rat-species vanilloid receptor 1 (VR1/TRPV1) (Rattus norvegicus, UniProt O35433); assay: Functional testing on vanilloid receptor 1 (VR1/TRPV1): FLIPR Ca2+ inflow assay in rat dorsal root ganglia cells (% activation / % inhibition vs capsaicin); type: cell-based; conditions: for inhibition at 10 µM: inhibition compared to 10 μM CP (capsaicin); for activation at 10 µM: stimulation compared to 10 μM CP (capsaicin); for IC50: capsaicin (CAP) stimulus, average
T1 construct: endogenous in cells; host or cells: primary cells dissociated from rat dorsal root ganglia (DRG)
In short: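 Rat dorsal root ganglion cells, dissociated with collagenase and trypsin, were plated at 3×10^5/mL on laminin-coated plates in NGF-containing HAMS F12 and cultured 2-3 days at 37° C. Ca2+ inflow read by Fluo-4 fluorescence on FLIPR; test compounds at 10 μM referenced to 10 μM capsaicin.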

[2] = target: T2, vanilloid receptor (VR1) (Homo sapiens, UniProt Q8NER1); assay: Functional testing on vanilloid receptor (VR1): FLIPR Ca2+ inflow assay in CHO K1 cells stably transfected with the VR1 gene; type: cell-based; conditions: for inhibition at 10 µM: CHO-K1, inhibition compared to 10 μM CP (capsaicin); for activation at 10 µM: CHO-K1, stimulation compared to 10 μM CP (capsaicin); for IC50: capsaicin (CAP) stimulus, average
T2 construct: expressed in transfected cells; host or cells: CHO K1 cells (ECACC), stably transfected
In short: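 CHO K1 cells stably expressing VR1, loaded with Fluo-4 (2 μM, 30 min, 37° C); peak Ca²⁺ fluorescence read on FLIPR. Compound (10 μM) added first, agonism as % of 10 μM capsaicin signal; after 5 min, 100 nM capsaicin added, % inhibition calculated relative to maximal inhibition with 10 μM capsaicin.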

T2 sequence (Q8NER1 whole entry): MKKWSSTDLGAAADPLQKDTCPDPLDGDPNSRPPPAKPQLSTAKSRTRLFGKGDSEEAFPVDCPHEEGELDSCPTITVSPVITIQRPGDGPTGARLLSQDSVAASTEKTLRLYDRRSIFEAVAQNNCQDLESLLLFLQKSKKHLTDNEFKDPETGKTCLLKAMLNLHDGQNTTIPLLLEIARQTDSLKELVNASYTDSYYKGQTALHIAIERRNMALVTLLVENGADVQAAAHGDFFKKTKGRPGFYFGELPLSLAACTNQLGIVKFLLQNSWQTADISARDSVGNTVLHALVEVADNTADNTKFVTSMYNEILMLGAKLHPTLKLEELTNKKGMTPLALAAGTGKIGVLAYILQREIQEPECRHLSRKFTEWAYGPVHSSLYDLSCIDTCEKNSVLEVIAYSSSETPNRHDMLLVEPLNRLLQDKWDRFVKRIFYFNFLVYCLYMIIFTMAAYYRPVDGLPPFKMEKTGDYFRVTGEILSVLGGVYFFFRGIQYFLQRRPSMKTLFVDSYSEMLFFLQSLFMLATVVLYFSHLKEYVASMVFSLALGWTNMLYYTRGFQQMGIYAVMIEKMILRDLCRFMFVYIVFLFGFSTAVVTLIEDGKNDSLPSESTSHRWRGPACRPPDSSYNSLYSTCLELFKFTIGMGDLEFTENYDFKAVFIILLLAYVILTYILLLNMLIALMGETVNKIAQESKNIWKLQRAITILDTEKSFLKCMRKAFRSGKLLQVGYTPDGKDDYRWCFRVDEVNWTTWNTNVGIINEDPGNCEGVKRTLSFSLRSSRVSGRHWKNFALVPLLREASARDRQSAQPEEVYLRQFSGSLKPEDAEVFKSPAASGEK
T1 sequence (O35433 whole entry): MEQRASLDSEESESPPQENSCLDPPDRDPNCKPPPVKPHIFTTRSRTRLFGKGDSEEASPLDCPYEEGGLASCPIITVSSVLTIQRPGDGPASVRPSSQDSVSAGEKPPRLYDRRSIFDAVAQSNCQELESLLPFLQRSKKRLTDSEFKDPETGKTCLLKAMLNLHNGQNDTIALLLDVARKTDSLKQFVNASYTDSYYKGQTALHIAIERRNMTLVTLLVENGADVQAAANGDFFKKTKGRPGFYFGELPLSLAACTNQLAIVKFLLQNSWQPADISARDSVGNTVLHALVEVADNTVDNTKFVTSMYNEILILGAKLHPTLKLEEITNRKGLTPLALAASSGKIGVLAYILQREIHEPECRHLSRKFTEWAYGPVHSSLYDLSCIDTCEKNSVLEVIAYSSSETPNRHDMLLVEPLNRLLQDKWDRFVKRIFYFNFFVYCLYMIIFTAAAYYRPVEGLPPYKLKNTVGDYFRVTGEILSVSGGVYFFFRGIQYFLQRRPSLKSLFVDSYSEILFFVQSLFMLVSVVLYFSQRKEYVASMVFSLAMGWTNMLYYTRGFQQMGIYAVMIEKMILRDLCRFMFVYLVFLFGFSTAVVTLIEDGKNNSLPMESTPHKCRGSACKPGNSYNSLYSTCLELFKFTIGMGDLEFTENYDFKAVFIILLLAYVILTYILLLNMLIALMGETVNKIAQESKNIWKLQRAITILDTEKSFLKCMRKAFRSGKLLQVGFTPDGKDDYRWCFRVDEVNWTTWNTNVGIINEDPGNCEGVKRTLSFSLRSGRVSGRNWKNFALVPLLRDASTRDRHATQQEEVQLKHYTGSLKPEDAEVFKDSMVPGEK

## CC(C)(C)c1ccc2[nH]c(N3CCC4(CC3)CC(c3ccccc3)=NO4)nc2c1 [Compound 379, 8-(5-tert-butyl-1H-benzimidazol-2-yl)-3-phenyl-1-oxa-2,8-diazaspiro[4.5]dec-2-ene]
other
  melting point: 230 to 236 °C

## Cc1ccc(C2=NOC3(CCN(C(=O)Nc4ccc(C(C)C)cc4)CC3)C2)cc1 [Compound 81, 3-p-tolyl-1-oxa-2,8-diazaspiro[4.5]dec-2-ene-8-carboxylic acid-(4-isopropylphenyl)amide]
[1]
  inhibition at 10 µM: 58.8%
  activation at 10 µM: -0.47%
[2]
  inhibition at 10 µM: -2.79%
  activation at 10 µM: -0.35%

## O=C(/C=C/c1ccc(C(F)(F)F)nc1N1CCCCC1)N1CCC2(CC1)CC(c1cccc(F)c1)=NO2 [Compound 365, (E)-1-(3-(3-fluorophenyl)-1-oxa-2,8-diazaspiro[4.5]dec-2-en-8-yl)-3-(2-(piperidin-1-yl)-6-(trifluoromethyl)pyridin-3-yl)prop-2-en-1-one]
[1]
  inhibition at 10 µM: 94%
  activation at 10 µM: 0%
[2]
  inhibition at 10 µM: 74%
  activation at 10 µM: -1%

## CC(C)(C)c1ccc(NC(=O)N2CCC3(CC2)CC(c2ccc(C(C)(C)C)cc2)=NO3)cc1 [Compound 143, 3-(4-tert-butylphenyl)-1-oxa-2,8-diazaspiro[4.5]dec-2-ene-8-carboxylic acid-(4-tert-butylphenyl)amide]
[1]
  inhibition at 10 µM: 45.7%
  activation at 10 µM: -0.33%
[2]
  inhibition at 10 µM: -7.17%
  activation at 10 µM: 4.12%

## O=C(/C=C/c1cccc(Br)c1)N1CCC2(CC1)CC(c1ccccc1)=NO2 [Compound 346, (E)-3-(3-bromophenyl)-1-(3-phenyl-1-oxa-2,8-diazaspiro[4.5]dec-2-en-8-yl)prop-2-en-1-one]
[1]
  IC50: 1360 nM
  inhibition at 10 µM: 62%
  activation at 10 µM: 0%
[2]
  inhibition at 10 µM: 3%
  activation at 10 µM: 0%
  IC50: 4380 nM

## COc1cccc(C2=NOC3(CCN(C(=O)Nc4ccc(C(C)C)cc4)CC3)C2)c1 [Compound 77, 3-(3-methoxyphenyl)-1-oxa-2,8-diazaspiro[4.5]dec-2-ene-8-carboxylic acid-(4-isopropylphenyl)amide]
[1]
  inhibition at 10 µM: 95.4%
  activation at 10 µM: 3.81%
[2]
  inhibition at 10 µM: 5.49%
  activation at 10 µM: 0.1%

## CC(C)c1ccc(C=CC(=O)N2CCC3(CC2)CC(c2ccccc2)=NO3)cc1 [Compound 325, 3-(4-isopropylphenyl)-1-(3-phenyl-1-oxa-2,8-diazaspiro[4.5]dec-2-en-8-yl)propenone]
[1]
  IC50: 270 nM
  inhibition at 10 µM: 63%
  activation at 10 µM: -6%
[2]
  inhibition at 10 µM: 6%
  activation at 10 µM: 0%
  IC50: 875 nM

## CC(C)(C)c1ccc(/C(=C/C(=O)N2CCC3(CC2)CC(c2cccc(F)c2)=NO3)c2ccc(Cl)c(Cl)c2)cc1 [Compound 360, (Z)-3-(4-tert-butylphenyl)-3-(3,4-dichlorophenyl)-1-(3-(3-fluorophenyl)-1-oxa-2,8-diazaspiro[4.5]dec-2-en-8-yl)prop-2-en-1-one]
[1]
  inhibition at 10 µM: 80%
  activation at 10 µM: 3%
[2]
  inhibition at 10 µM: 12%
  activation at 10 µM: 0%

## COc1ccccc1NC(=O)N1CCC2(CC1)CC(c1ccc(C(C)(C)C)cc1)=NO2 [Compound 201, 3-(4-tert-butylphenyl)-1-oxa-2,8-diazaspiro[4.5]dec-2-ene-8-carboxylic acid-(2-methoxyphenyl)amide]
[1]
  inhibition at 10 µM: 54.2%
  activation at 10 µM: -0.43%
[2]
  inhibition at 10 µM: -0.7%
  activation at 10 µM: 8.56%

## CCc1ccc(NC(=O)N2CCC3(CC2)CC(c2ccccc2)=NO3)cc1 [Compound 163, 3-phenyl-1-oxa-2,8-diazaspiro[4.5]dec-2-ene-8-carboxylic acid-(4-ethylphenyl)amide]
[1]
  inhibition at 10 µM: 84.3%
  activation at 10 µM: -0.43%
[2]
  inhibition at 10 µM: -3.15%
  activation at 10 µM: 0.12%

## CCc1ccc(NC(=O)N2CCC3(CC2)CC(c2ccc(C(C)(C)C)cc2)=NO3)cc1 [Compound 165, 3-(4-tert-butylphenyl)-1-oxa-2,8-diazaspiro[4.5]dec-2-ene-8-carboxylic acid-(4-ethylphenyl)amide]
[1]
  inhibition at 10 µM: 56.2%
  activation at 10 µM: -0.43%
[2]
  inhibition at 10 µM: 1.69%
  activation at 10 µM: 1.92%
